Measured values from patent US10464977B2 (University of Maryland, Baltimore, priority 2016, dated 2019).
Residues, ends and D or L forms follow the SMILES beside them. No end group written: not given here.

How the values were obtained:
Sap2 [1] = biological target: T1, Sap2 (Candida albicans, UniProt P0DJ06); assay: in vitro; settings: for degradation by Sap2 (in words): 6.25 μg mL^−1 Sap2, 150 μg mL^−1 peptide; for degradation by Sap2 (in words) / intact peptide remaining after incubation with higher Sap2 concentration: 2 h, 37° C.; for intact peptide remaining after incubation with higher Sap2 concentration: 18 μg mL^−1 Sap2, 150 μg mL^−1 peptide
Protocol: (§1) Experiments were done in 1 mM NaPB. The mixtures were incubated at 37° C. for 2 h, and NaPB with no Sap was used as a control. After the incubation, the samples were mixed with tricine sample buffer (without Coomassie Blue G-250, except in control samples) containing β-mercaptoethanol and boiled for 5 min at 100° C. to inactivate the proteases. The degraded and non-degraded peptides were separated by gel electrophoresis in 10-20% Tris-tricine gels (Bio-Rad), and the gels were then fixed in a 10% acetic acid/40% methanol/50% water mixture for 30 min. The fixed gels were stained with Bio-Safe Coomassie stain (Bio-Rad) for 1 h and washed with fresh water three times, once overnight and then twice for at least 2 h each time. The gels were imaged on a Chemidoc imager (Bio-Rad), and densitometric analysis was done with Image Lab software (Bio-Rad). […] Three replicates of the assay were done.
(§2) To measure the antifungal activity of the peptides following degradation by the Saps, the antifungal activity assay was performed as described above, except the peptides were first exposed to Saps. The peptide fragments were prepared by incubating each peptide (150 μg mL^−1) with 6.25 μg mL^−1 Sap9 or 18 μg mL^−1 Sap2 for 2 h at 37° C. The enzymes were then inactivated by heating at 100° C. for 5 min. As controls, each peptide was also incubated with only NaPB buffer. Samples were then stored at −20° C. until use in the antifungal activity assay.
(§3) The intact peptide was then separated from the degradation products using gel electrophoresis and quantified the level of degradation using densitometric analysis of Coomassie-stained gels.
(§4) To amplify differences in antifungal activity due to degradation by the Saps, the concentrations of the Saps was increased by at least two-fold compared to the concentrations used for the gel electrophoresis data in FIGS. 1A-1D (to 6.25 μg mL^−1 for Sap9 and 18 μg mL^−1 for Sap2).

Sap9 [2] = biological target: T2, Sap9 (Candida albicans, UniProt Q59SU1); assay: in vitro; settings: Candida albicans, isolated enzyme
Protocol: as §1, §2, §3, §4

Sap2 [3] = biological target: T1, Sap2; settings: 6.25 μg mL^−1 Sap2
Protocol: (§5) The cleavage sites of the Saps and the abundance of the fragments produced by cleavage were determined using mass spectrometry. […] The binding solution was 0.1% formic acid, and the releasing solution was 0.1% formic acid/60% acetonitrile (ACN). To ensure equal flow-through volume of each sample, 18 μL of desalted sample was aliquoted and 1 μL of the four-amino acid peptide MRFA at 0.1 mg mL^−1 was added. Samples were manually loaded through loop injection at 25 μL min^−1 with 40% ACN/0.1% formic acid. Mass spectra were acquired with a Thermo Scientific Orbitrap Fusion Lumos Tribrid mass spectrometer with data-dependent analysis at a 5 s cycle time. Manufacturer recommended source parameters for a flow rate of 25 μL min^−1 were applied. Full scan mass spectra of m z^−1 350-1550 were acquired in the orbitrap at R=120000 (m z^−1 200) with fluoranthene ion as the internal calibrant. CID and ETD fragments of the most intense ions (z>1) were recorded with the orbitrap at R=60000 (m z^−1 200). Dynamic exclusion was set at 30 s.
(§6) The molecular weights of the peptides and their fragments were calculated from full scan MS spectra using the XTract program in the XCalibur software (Thermo Scientific). MS/MS spectra from ETD and CID fragmentation were processed using Proteome Discoverer (V2.1) with Prosight PD node to identify peptides and their degradation products. […] Intensities of identified peptides and their degradation products relative to the internal standard MRFA were obtained from the deconvoluted full scan mass spectra.
(§7) After incubation of the peptides with each Sap, the four-amino-acid peptide MRFA was added as an internal standard, and samples were directly injected into the mass spectrometer.

Sap9 [4] = biological target: T2, Sap9; settings: 3.13 μg mL^−1 Sap9
Protocol: as §5, §6, §7

[5] = system: C. albicans cells (ATCC 90028); assay: Degradation of peptides by whole C. albicans cells, gel densitometry; type: in vitro ADME; settings: 1×10^9 cells mL^−1, 150 μg mL^−1 peptide, 2 h, 37° C., 100 mM NaPB
Protocol: For degradation with C. albicans, a single colony of the ATCC 90028 strain (American Type Culture Collection) was used to inoculate YPD. The culture was grown overnight, subcultured, and grown to an optical density of 1-1.2 at OD600. All incubations were done at 30° C. The cells were washed three times in 100 mM NaPB and diluted to 2×10^9 cells mL^−1. Equal volumes of cells and peptides were mixed and incubated for 2 h at 37° C. The cells were removed by centrifugation, and the supernatants were mixed with tricine sample buffer and boiled for 10 min. The samples were then run on gels and analyzed as described above for degradation by the Saps. Three biological replicates were performed.
After observing the effect of residue modifications on the cleavage of Hst-5 by the purified recombinant Saps, whether incubation of the peptides with whole C. albicans cells expressing Saps (rather than Saps produced recombinantly) would yield similar results was evaluated. Hst-5 and the synthetic peptides were incubated with C. albicans cells for 2 h at 37° C. in 100 mM NaPB. The high ionic strength of this buffer prevents internalization of the peptides by C. albicans (4) allowing analysis of degradation of the peptides without the confounding effects of peptide internalization, which would reduce the amount of peptide in the reaction buffer.

Sap2 [6] = assay: 6.25 μg mL^−1 Sap2 in 1 mM NaPB; settings: C. albicans, 37° C., up to 2 h
Sap2 [7] = assay: 18 μg mL^−1 Sap2 in 1 mM sodium phosphate buffer (NaPB); settings: C. albicans, 37° C., up to 2 h
Sap9 [8] = assay: 3.13 μg mL^−1 Sap9 in 1 mM NaPB; settings: C. albicans, 37° C., up to 2 h

T1 sequence (P0DJ06 57-398): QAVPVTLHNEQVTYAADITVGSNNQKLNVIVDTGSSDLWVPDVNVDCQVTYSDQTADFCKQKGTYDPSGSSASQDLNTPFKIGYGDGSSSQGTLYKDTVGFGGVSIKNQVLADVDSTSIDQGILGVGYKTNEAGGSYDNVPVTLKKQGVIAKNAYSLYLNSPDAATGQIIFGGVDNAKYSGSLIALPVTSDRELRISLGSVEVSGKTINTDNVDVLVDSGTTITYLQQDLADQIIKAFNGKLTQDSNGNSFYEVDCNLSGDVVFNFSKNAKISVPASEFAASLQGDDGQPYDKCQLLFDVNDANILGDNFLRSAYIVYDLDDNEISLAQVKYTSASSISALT
T2 sequence (Q59SU1 18-520): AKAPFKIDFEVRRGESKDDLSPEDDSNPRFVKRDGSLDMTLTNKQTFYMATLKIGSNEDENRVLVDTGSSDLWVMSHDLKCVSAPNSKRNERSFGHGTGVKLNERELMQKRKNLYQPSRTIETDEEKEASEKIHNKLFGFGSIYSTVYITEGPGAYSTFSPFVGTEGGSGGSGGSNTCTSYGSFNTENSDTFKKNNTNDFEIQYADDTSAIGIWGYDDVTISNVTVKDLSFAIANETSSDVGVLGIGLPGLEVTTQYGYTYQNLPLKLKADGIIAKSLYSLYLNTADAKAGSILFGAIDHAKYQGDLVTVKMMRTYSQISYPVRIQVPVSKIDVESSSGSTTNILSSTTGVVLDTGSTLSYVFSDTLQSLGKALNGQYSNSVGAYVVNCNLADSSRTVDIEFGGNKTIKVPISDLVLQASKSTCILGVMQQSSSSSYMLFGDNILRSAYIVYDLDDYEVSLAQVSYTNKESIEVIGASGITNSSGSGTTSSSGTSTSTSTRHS

Q: Which results are given for `C[C@H](NC(=O)[C@H](Cc1cnc[nH]1)NC(=O)[C@H](CO)NC(=O)[C@@H](N)CC(=O)O)C(=O)N[C@@H](CCCCN)C(=O)N[C@@H](CCCNC(=N)N)C(=O)N[C@@H](Cc1cnc[nH]1)C(=O)N[C@@H](Cc1cnc[nH]1)C(=O)NCC(=O)N[C@@H](Cc1ccc(O)cc1)C(=O)N[C@@H](CCCCN)C(=O)N[C@@H](CCCNC(=N)N)C(=O)N[C@@H](CCCCN)C(=O)N[C@@H](Cc1ccccc1)C(=O)N[C@@H](Cc1cnc[nH]1)C(=O)N[C@@H](CCC(=O)O)C(=O)N[C@@H](CCCCN)C(=O)N[C@@H](Cc1cnc[nH]1)C(=O)N[C@@H](Cc1cnc[nH]1)C(=O)N[C@@H](CO)C(=O)N[C@@H](Cc1cnc[nH]1)C(=O)N[C@@H](CCCNC(=N)N)C(=O)NCC(=O)N[C@@H](Cc1ccc(O)cc1)C(=O)O` [Hst-5, reference compound]?
A: remaining at 2 h, 150 μg mL^−1 (Sap2 [1]; Candida albicans, isolated enzyme): 61%; remaining at 2 h, 150 μg mL^−1 (Sap9 [2]): 47%; mass spectrometry signal of intact peptide versus fragments, Sap2 (Sap2 [3]): intact peptide having the highest signal; mass spectrometry signal of intact peptide versus fragments, Sap9 (Sap9 [4]): signal for the degradation fragment containing amino acids 1-17 of Hst-5 was higher than the intact peptide

Q: How did the “degradation by C. albicans cells (in words)” value [5] turn out when `CC(C)C[C@H](NC(=O)[C@H](CCCNC(=N)N)NC(=O)[C@H](CCCCN)NC(=O)[C@H](Cc1ccc(O)cc1)NC(=O)CNC(=O)[C@H](Cc1c[nH]cn1)NC(=O)[C@H](Cc1c[nH]cn1)NC(=O)[C@H](CCCNC(=N)N)NC(=O)[C@H](CCCCN)NC(=O)[C@H](C)NC(=O)[C@H](Cc1c[nH]cn1)NC(=O)[C@H](CO)NC(=O)[C@@H](N)CC(=O)O)C(=O)N[C@@H](Cc1ccccc1)C(=O)N[C@@H](Cc1c[nH]cn1)C(=O)N[C@@H](CCC(=O)O)C(=O)N[C@@H](CCCCN)C(=O)N[C@@H](Cc1c[nH]cn1)C(=O)N[C@@H](Cc1c[nH]cn1)C(=O)N[C@@H](CO)C(=O)N[C@@H](Cc1c[nH]cn1)C(=O)N[C@@H](CCCNC(=N)N)C(=O)NCC(=O)N[C@@H](Cc1ccc(O)cc1)C(=O)O` [Peptide K13L] (H-DSHAKRHHGYKRLFHEKHHSHRGY-OH; N-terminus and C-terminus assumed) was run?
A: increase in degradation compared to the parent Hst-5

Q: And the “mass spectrometry signal of intact peptide versus fragments, Sap9” value (Sap9 [4])?
A: apparent shift in cleavage site preference compared to the parent Hst-5

Q: `CC(C)C[C@H](NC(=O)[C@H](CCC(=O)O)NC(=O)[C@H](Cc1c[nH]cn1)NC(=O)[C@H](Cc1ccccc1)NC(=O)[C@H](CCCCN)NC(=O)[C@H](CCCNC(=N)N)NC(=O)[C@H](CCCCN)NC(=O)[C@H](Cc1ccc(O)cc1)NC(=O)CNC(=O)[C@H](Cc1c[nH]cn1)NC(=O)[C@H](Cc1c[nH]cn1)NC(=O)[C@H](CCCNC(=N)N)NC(=O)[C@H](CCCCN)NC(=O)[C@H](C)NC(=O)[C@H](Cc1c[nH]cn1)NC(=O)[C@H](CO)NC(=O)[C@@H](N)CC(=O)O)C(=O)N[C@@H](Cc1c[nH]cn1)C(=O)N[C@@H](Cc1c[nH]cn1)C(=O)N[C@@H](CO)C(=O)N[C@@H](Cc1c[nH]cn1)C(=O)N[C@@H](CCCNC(=N)N)C(=O)NCC(=O)N[C@@H](Cc1ccc(O)cc1)C(=O)O` [Peptide K17L] (H-DSHAKRHHGYKRKFHELHHSHRGY-OH; N-terminus and C-terminus assumed) was tested. Which “degradation by Sap2 (in words)” value (Sap2 [1]) did it give?
A: No detectable degradation

Q: What about the “intact peptide remaining after incubation with higher Sap2 concentration” value (Sap2 [1]) of the same compound?
A: over 70%

Q: What about the remaining at 2 h, 150 μg mL^−1 (Sap9 [2]) of the same compound?
A: 77%

Q: What about the “cleavage at the C-terminal side of K17 by Sap2 (mass spectrometry)” value (Sap2 [3]) of the same compound?
A: still cleaved

Q: And the “cleavage on the C-terminal side of K17 by Sap9 (mass spectrometry)” value (Sap9 [4])?
A: neither K17R nor K17L showed significant cleavage at this site

Q: And the “mass spectrometry signal of intact peptide versus fragments, Sap9” value (Sap9 [4])?
A: the most intense signal came from the intact peptide

Q: Which “degradation by Sap2 (in words)” value (Sap2 [1]) does the source give for `C[C@H](NC(=O)[C@H](Cc1c[nH]cn1)NC(=O)[C@H](CO)NC(=O)[C@@H](N)CC(=O)O)C(=O)N[C@@H](CCCCN)C(=O)N[C@@H](CCCNC(=N)N)C(=O)N[C@@H](Cc1c[nH]cn1)C(=O)N[C@@H](Cc1c[nH]cn1)C(=O)NCC(=O)N[C@@H](Cc1ccc(O)cc1)C(=O)N[C@@H](CCCCN)C(=O)N[C@@H](CCCNC(=N)N)C(=O)N[C@@H](CCCCN)C(=O)N[C@@H](Cc1ccccc1)C(=O)N[C@@H](Cc1c[nH]cn1)C(=O)N[C@@H](CCC(=O)O)C(=O)N[C@@H](CCCNC(=N)N)C(=O)N[C@@H](Cc1c[nH]cn1)C(=O)N[C@@H](Cc1c[nH]cn1)C(=O)N[C@@H](CO)C(=O)N[C@@H](Cc1c[nH]cn1)C(=O)N[C@@H](CCCNC(=N)N)C(=O)NCC(=O)N[C@@H](Cc1ccc(O)cc1)C(=O)O` [Peptide K17R] (H-DSHAKRHHGYKRKFHERHHSHRGY-OH; N-terminus and C-terminus assumed) here?
A: No detectable degradation

Q: What about the “intact peptide remaining after incubation with higher Sap2 concentration” value (Sap2 [1]) of the same compound?
A: over 90%

Q: And the remaining at 2 h, 150 μg mL^−1 (Sap9 [2])?
A: 82%

Q: And the “cleavage at the C-terminal side of K17 by Sap2 (mass spectrometry)” value (Sap2 [3])?
A: still cleaved

Q: And the “cleavage on the C-terminal side of K17 by Sap9 (mass spectrometry)” value (Sap9 [4])?
A: neither K17R nor K17L showed significant cleavage at this site

Q: And the “mass spectrometry signal of intact peptide versus fragments, Sap9” value (Sap9 [4])?
A: the most intense signal came from the intact peptide

Q: Which cleaved bond (Sap2 [6]) does the source give for DSHAKRHHGYKRKFHELHHSHRGY here?
A: L17-H18

Q: With DSHAKRHHGYKRKFHERHHSHRGY as the compound, how does the not cleaved (Sap2 [7]) read?
A: over 90% remaining

Q: And the cleaved bond (Sap2 [6])?
A: R17-H18

Q: How did the not cleaved (Sap2 [6]) turn out when DSHAKRHHGYRRKFHERHHSHRGY was run?
A: no observable degradation

Q: What about the not cleaved (Sap9 [8]) of the same compound?
A: no observable degradation
